Some test systems named below: 786-0 renal; HT29 colon; NCI-H522 lung; SF-268 CNS; SK-MEL-28 melanoma; SN12C renal; SW-620 colon; UACC-257 melanoma; UO-31 renal.
What all share (assay): inhibition of tumour cell growth, NCI panel, 48 h

Drawing on PubChem BioAssay (NCI), this text covers TGI for 24 compounds.

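Step 1: Grow cells in 96-well plates. Step 2: Expose to compound for 48 hours at 5 concentrations. Step 3: Interpolate endpoints linearly; if unreached, use highest concentration. Definition used: TGI = concentration required for complete inhibition of growth.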

With `COc1c(OC2OC(CO)C(O)C(O)C2O)cc2c(c1OC)-c1ccc(OC)c(=O)cc1[C@@H](NC(C)=O)CC2` (stereo partly drawn), the TGI with 786-0 renal is greater than 100 µM; in the test with HT29 colon it was greater than 100 µM; in the test with NCI-H522 lung, 99.3 µM; in the test with SF-268 CNS, greater than 56.2 µM; with SK-MEL-28 melanoma, greater than 100 µM; in the test on SN12C renal it was greater than 100 µM. Also, the TGI with SW-620 colon, with UACC-257 melanoma and in the test with UO-31 renal was greater than 100 µM in each case.

`COC(=O)C(C(=O)C(=O)Nc1ccc(N)cc1[N+](=O)[O-])c1nc2ccc(Cl)cc2[nH]c1=O` (stereo not drawn): the TGI in the test on 786-0 renal, in the test on HT29 colon, with SF-268 CNS, with SK-MEL-28 melanoma, in the test on SN12C renal and in the test on SW-620 colon was greater than 100 µM throughout. Also, the TGI in the test on UACC-257 melanoma and in the test with UO-31 renal was greater than 100 µM throughout.

`CCCCCCC(=O)CC(=O)C(=O)Nc1ccccc1C`: the TGI with 786-0 renal, in the test with HT29 colon, with NCI-H522 lung, with SF-268 CNS, in the test with SK-MEL-28 melanoma and in the test with SN12C renal was greater than 100 µM in each case. Further, the TGI was greater than 59.4 µM in the test on SW-620 colon, greater than 100 µM with UACC-257 melanoma and greater than 100 µM in the test with UO-31 renal.

`CCOc1cc[n+](C(=C=[N-])C#N)cc1`: the TGI in the test on 786-0 renal, in the test on HT29 colon, with NCI-H522 lung, in the test with SF-268 CNS, in the test on SN12C renal and in the test on SW-620 colon was greater than 100 µM throughout. In addition, the TGI in the test on UACC-257 melanoma and in the test on UO-31 renal was greater than 100 µM each time.

Consider `COc1ccc([Se]c2ccc(OC)cc2)cc1`, for which the TGI in the test with 786-0 renal, in the test with HT29 colon, in the test with NCI-H522 lung, with SF-268 CNS, with SK-MEL-28 melanoma and in the test with SN12C renal was greater than 100 µM each time. The TGI with SW-620 colon is greater than 100 µM; in the test on UACC-257 melanoma, greater than 100 µM; in the test on UO-31 renal, 9.8 µM.

Turning to `CC(=O)OC1(C#N)CC2OC1C1NC21` (stereo not drawn), the TGI in the test on 786-0 renal, in the test on NCI-H522 lung, in the test on SF-268 CNS, in the test with SK-MEL-28 melanoma, in the test with SN12C renal and with SW-620 colon was greater than 100 µM in each case. The compound further came in with a TGI in the test on UO-31 renal greater than 100 µM.

As for `NNC(=O)N/N=C1/C(=O)N(c2ccc(Cl)c(Cl)c2)C(=O)C(=O)C1c1nc2ccccc2o1` (stereo not drawn), the TGI in the test on 786-0 renal, in the test on HT29 colon, in the test with NCI-H522 lung, with SF-268 CNS, in the test with SK-MEL-28 melanoma and in the test with SN12C renal was greater than 100 µM in each case. The TGI with SW-620 colon, in the test on UACC-257 melanoma and with UO-31 renal was greater than 100 µM throughout.

`O=C(OCc1ccccc1)c1ccccc1-c1c2ccc(=O)cc-2oc2cc(OCc3ccccc3)ccc12`: the TGI in the test on 786-0 renal was 71 µM; in the test with HT29 colon, 55.5 µM; in the test on SF-268 CNS, greater than 100 µM; in the test on SK-MEL-28 melanoma it was 61 µM; in the test with SN12C renal it was 74.4 µM; in the test on SW-620 colon it was greater than 100 µM. The TGI in the test on UACC-257 melanoma stood at 67 µM; in the test with UO-31 renal, 55.3 µM.

`C(=NCCN=Cc1cccc2ccccc12)c1cccc2ccccc12`: the TGI in the test on 786-0 renal, with HT29 colon, in the test with NCI-H522 lung, in the test on SK-MEL-28 melanoma, with SN12C renal and in the test on SW-620 colon was greater than 100 µM each time. Also, the TGI in the test on UACC-257 melanoma and with UO-31 renal was greater than 100 µM each time.

For `C#Cc1ccccc1N1C(=O)C=CC1=O`, the TGI in the test on 786-0 renal, in the test on HT29 colon, with NCI-H522 lung, in the test on SF-268 CNS, in the test with SK-MEL-28 melanoma and in the test on SN12C renal was greater than 100 µM each time. The TGI in the test with SW-620 colon, in the test on UACC-257 melanoma and in the test on UO-31 renal was greater than 100 µM each time.

For the compound `Nc1ncnc2c1ncn2COC/C=C/I`, the TGI in the test on 786-0 renal, with HT29 colon, with NCI-H522 lung, in the test on SF-268 CNS, in the test on SK-MEL-28 melanoma and in the test with SN12C renal was greater than 100 µM each time. For the same compound, the TGI with SW-620 colon, in the test with UACC-257 melanoma and in the test on UO-31 renal was greater than 100 µM in each case.

Take `CN/N=C(/CC(=O)c1sc(NNC(C)=O)nc1C)C(=O)Nc1ccc(OC)cc1OC`: the TGI in the test on 786-0 renal, with HT29 colon, in the test with NCI-H522 lung, in the test with SF-268 CNS, in the test with SK-MEL-28 melanoma and in the test on SN12C renal was greater than 100 µM throughout. The TGI in the test on SW-620 colon, in the test on UACC-257 melanoma and with UO-31 renal was greater than 100 µM each time.

Consider `CC(=O)N1CCN(C=S)CC1`, for which the TGI in the test with 786-0 renal, in the test on HT29 colon, with NCI-H522 lung, in the test with SF-268 CNS, in the test with SK-MEL-28 melanoma and in the test with SN12C renal was greater than 100 µM each time. The TGI in the test with SW-620 colon, in the test on UACC-257 melanoma and in the test with UO-31 renal was greater than 100 µM each time.

With `ClCCCN1CCCCC1CCl` (stereo not drawn), the TGI in the test on 786-0 renal, in the test with HT29 colon, in the test with NCI-H522 lung, with SF-268 CNS, in the test on SK-MEL-28 melanoma and in the test on SN12C renal was greater than 100 µM in each case. The TGI with SW-620 colon and in the test on UO-31 renal was greater than 100 µM in each case.

In the case of `Cc1ccc(NC(=O)CC2C(=O)Nc3ccccc3S2(=O)=O)cc1C` (stereo not drawn), the TGI in the test on 786-0 renal, in the test on HT29 colon, in the test with NCI-H522 lung, in the test on SK-MEL-28 melanoma, in the test on SN12C renal and in the test with SW-620 colon was greater than 100 µM in each case. Further, the TGI in the test with UACC-257 melanoma and in the test with UO-31 renal was greater than 100 µM each time.

`NC(C(=O)O)c1ccc(C(=O)O)cc1` (stereo not drawn): the TGI with 786-0 renal, with HT29 colon, with NCI-H522 lung, in the test with SF-268 CNS, in the test on SK-MEL-28 melanoma and with SN12C renal was greater than 100 µM in each case. Further, the TGI in the test on SW-620 colon, with UACC-257 melanoma and in the test with UO-31 renal was greater than 100 µM each time.

On to `CCCCCC/C(CC(=O)CCC(=O)NCCc1ccccc1)=N\NC(=O)c1ccc2ccccc2c1O`, for which the TGI in the test with 786-0 renal, in the test with HT29 colon, in the test on SF-268 CNS, in the test on SK-MEL-28 melanoma, in the test with SN12C renal and in the test on SW-620 colon was greater than 100 µM in each case. The TGI in the test with UACC-257 melanoma and with UO-31 renal was greater than 100 µM in each case.

On to `Cc1c(C(=O)Nc2ccc(Cl)cc2)nc(N)nc1-c1cccc(Cl)c1`, for which the TGI in the test with 786-0 renal, in the test on HT29 colon, in the test on SF-268 CNS, in the test on SK-MEL-28 melanoma, with SN12C renal and with SW-620 colon was greater than 100 µM in each case. Moreover, the TGI in the test with UACC-257 melanoma and in the test on UO-31 renal was greater than 100 µM throughout.

On to `Cc1ccc(SSCCCCS(=O)O)cc1`, for which the TGI is greater than 100 µM with 786-0 renal; 53.7 µM in the test on HT29 colon; 27.6 µM in the test with NCI-H522 lung; 46.9 µM in the test on SF-268 CNS; 44.1 µM in the test with SK-MEL-28 melanoma; 40.4 µM in the test with SN12C renal. For the same compound, the TGI amounted to 38.5 µM in the test on SW-620 colon, 53.3 µM with UACC-257 melanoma and 39.8 µM in the test on UO-31 renal.

For `N#CC(CC(=O)O)=C(c1ccccc1)c1ccccc1`, the TGI with 786-0 renal, in the test on HT29 colon, in the test with NCI-H522 lung, with SF-268 CNS, in the test with SK-MEL-28 melanoma and in the test on SN12C renal was greater than 100 µM throughout. The TGI with SW-620 colon, with UACC-257 melanoma and in the test with UO-31 renal was greater than 100 µM throughout.

With `CCN(CC)c1ccc(N=C2C=CC(=C(C#N)C#N)c3ccccc32)c(C)c1`, the TGI with 786-0 renal is 6.24 µM; in the test with HT29 colon, 24.9 µM; with SK-MEL-28 melanoma it was 4.22 µM; in the test with SN12C renal it was 7.86 µM; with UACC-257 melanoma, 5.78 µM; with UO-31 renal, 6.95 µM.

With `C=C1CC(CC(=O)C(C)CC2CC(=C)C(=O)O2)OC1=O` (stereo not drawn), the TGI with 786-0 renal was found to be 43.3 µM; in the test with HT29 colon, 63.2 µM; in the test on SF-268 CNS, 48.6 µM; in the test with SK-MEL-28 melanoma it was 30.4 µM; with SN12C renal, 34.1 µM; in the test on SW-620 colon it was 24.2 µM. Besides, the TGI in the test with UACC-257 melanoma is 30.7 µM; with UO-31 renal it was greater than 100 µM.

On to `N#CC1([N+](=O)[O-])C=C1c1ccccc1` (stereo not drawn), for which the TGI was greater than 100 µM in the test with 786-0 renal; greater than 100 µM with HT29 colon; 56.6 µM with NCI-H522 lung; greater than 100 µM in the test with SF-268 CNS; greater than 100 µM in the test with SN12C renal; 41.6 µM in the test with SW-620 colon. For the same compound, the TGI with UACC-257 melanoma and with UO-31 renal was greater than 100 µM in each case.

As for `COc1ccc(S(=O)(=O)N/N=C/CN2C(=O)c3ccccc3C2=O)cc1`, the TGI in the test on 786-0 renal, in the test with HT29 colon, in the test on NCI-H522 lung, in the test with SN12C renal, in the test on SW-620 colon and in the test on UACC-257 melanoma was greater than 100 µM each time.
